Results on 1 compound are retold here after publication PMC12610274, “Identification of Marrubiin as a Cathepsin C Inhibitor for Treating Rheumatoid Arthritis” (Molecules, 2025).

For assay [1], the system named is Cat G. The assay is described as follows: Cat G activity in blood and bone marrow of mice. It is filed as in vivo, C57BL/6 mice. To be noted: 30 mg/kg daily gavage, 7 days. How it is done: (§1) A total of 25 C57BL/6 mice (6–8 weeks old, weighing approximately 20 g, with equal numbers of males and females) were randomly divided into five groups. Mice in the compound-treated groups were orally administered the compound once daily at doses of 0.3, 3, and 30 mg/kg for 7 consecutive days. […] Mice in the normal group were given an equal volume of normal saline at the same time points. The body weight, death rate, and behavior were observed and recorded daily for one week. After 7 days, bone marrow and blood samples were collected from the mice and lysed using 8% Triton X-100 buffer. The lysates were stored at −20 °C until testing. The activity assays for CTSC and NSPs were performed as described above. The mice were anesthetized and the tissues were taken for H&E staining.

In assay [2] the test system is PR3. As to the kind of experiment: Stability (protein level) of NSPs in U937 cells, Western blot, PR3. Format: cell-based, human. To be noted: U937, 10 μM. On the procedure: (§2) The Western blot experiments in this study were performed as described below. Cells in the logarithmic growth phase were collected in appropriate numbers according to different experimental purposes. After being thoroughly washed with phosphate-buffered saline and centrifuged, the cell pellets were resuspended in phosphate-buffered saline to obtain single-cell suspensions. Cells were fully lysed using RIPA buffer (Beyotime, P0013B) supplemented with EDTA-free protease and phosphatase inhibitor (Abcam, ab201120). Total cellular protein solutions were obtained after centrifugation to remove cell debris. The isolated proteins were quantified using the BeyoBCA protein assay kit (Beyotime, P0399M) following the operational protocol. The quantified protein samples were thoroughly mixed with protein loading buffer, boiled on a dry bath for 5 min, and then cooled to room temperature for Western blot analysis. […] Finally, enhanced chemiluminescent horseradish peroxidase substrate (Tanon Science & Technology Co., Ltd., Shanghai, China, 180-506) was used to visualize protein bands on a ChemiDoc XRS system (Bio-Rad Laboratories, Inc., Hercules, CA, USA), and the protein bands were quantified using Image Lab analysis software (Version 6.1) (Bio-Rad). […]
(Immunoblotting shows a protein as a band on a membrane.)

For assay [3], the target named is T1, PR3 (Homo sapiens, UniProt P24158).
T1 construct: purchased MedChemExpress
The assay is described as follows: Recombinant NSPs isolated enzyme assay, PR3. The note with it: read-out: PR3 Enz (IC50: μM). Format: biochemical. From the text:
(§3) The protocol for evaluating the inhibitory potency of compounds against other cathepsins referred to the CTSC activity assay. Recombinant human CTSB, CTSL, CTSS and CTSK for testing were also purchased from R&D Systems Biotechnology Company. Recombinant human Cat G, NE, and PR3 For testing were purchased from MedChemExpress. A multi-functional microplate reader was used to measure the absorption of Z-Leu-Arg-AMC at excitation/emission wavelengths of 380/460 nm to assess the activity changes of CTSB and CTSL, while the absorption of MCA-Arg-Pro-Lys-Pro-Val-Glu-NVAL-Trp-Arg-Lys(DNP)-NH2 at 320/405 nm was measured to evaluate the activity changes of CTSS and CTSK. Different assay buffers were prepared for diluting samples and measuring the activities of specific NSPs: a buffer containing 50 mM Tris and 750 mM NaCl (pH 7.4) was used for NE and PR3; a buffer containing 50 mM Tris, 750 mM NaCl, 5 mM EDTA (pH 7.4) was used for Cat G; and a buffer containing 25 mM MES, 50 mM NaCl, 5 mM DTT (pH 6.0) was used for CTSC. Synthetic substrates were employed to assess the activities of NSPs and CTSC: H-Gly-Arg-AMC for CTSC, N-MeSuc-Ala-Ala-Pro-Val-pNA for NE, aminobenzoyl-Val-Ala-Asp-Cys-Ala-Asp-Gln-ethylenediamine 2,4-dinitrophenyl for PR3, and N-Suc-Ala-Ala-Pro-Phe-pNA for Cat G. Each group of tests was independently repeated at least 3 times, and IC50 values were calculated using SPSS 10.0.

Assay [4] has as its system PR3. The assay is described as follows: PR3 activity in blood and bone marrow of mice. It is filed as in vivo, C57BL/6 mice. The note with it: 30 mg/kg daily gavage, 7 days. On the procedure:
as §1

For assay [5], the target named is T2, CTSB (Homo sapiens, UniProt P07858).
T2 construct: purchased R&D Systems
As to the kind of experiment: Human recombinant cathepsins isolated enzyme assay, CTSB. Format: biochemical. The note with it: read-out: CTSB Enz (IC50: μM).
Text: as §3

Assay [6] has as its system Cat G. The assay is described as follows: Stability (protein level) of NSPs in U937 cells, Western blot, Cat G. Format: cell-based, human. The note with it: U937, 10 μM. How it is done: as §2

T1 sequence (P24158 28-256): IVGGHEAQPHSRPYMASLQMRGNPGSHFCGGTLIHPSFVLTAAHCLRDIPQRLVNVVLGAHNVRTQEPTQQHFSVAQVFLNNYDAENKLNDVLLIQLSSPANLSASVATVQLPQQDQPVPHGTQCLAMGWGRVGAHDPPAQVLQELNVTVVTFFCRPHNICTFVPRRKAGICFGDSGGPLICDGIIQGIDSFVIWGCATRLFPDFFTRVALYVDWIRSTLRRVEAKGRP

On to `C[C@@H]1C[C@H]2OC(=O)[C@@]3(C)CCC[C@@](C)([C@@H]23)[C@@]1(O)CCc1ccoc1` [Marrubiin, marrubiin], for which the “remaining activity rate of Cat G” value in assay [1] (blood) is about 35.5%; in assay [1] (bone marrow), about 40.2%. The figures for the “PR3 protein level, % of original level” value in assay [2] (96 h) and in assay [2] (5 days) were 28.2% and 15.8%, respectively. The IC50 (commonly the midpoint of a concentration-inhibition curve) is over 10 µM in assay [3] and 9.8 ± 1.1 µM in assay [5]. The “remaining activity rate of PR3” value in assay [4] (blood) is given as about 13.6%; in assay [4] (bone marrow), about 25.8%. For the same compound, the results for the “Cat G protein level, % of original level” value in assay [6] (96 h) and in assay [6] (5 days) were 30.2% and 12.3%, respectively.
